What was measured:
Assay type in all cases: in vivo, rat
[1] = test system: myogenin; test: Acute denervation: myogenin mRNA in EDL and soleus (qPCR)
Procedure: (§1) Male Wistar rats weighing 250 gm (Taconic Farms, Germantown, N.Y.) were provided food and water ad libitum and were housed in a temperature and humidity controlled environment providing a 12:12 hour day-night cycle. For surgical procedures, animals were anesthetized with ketamine/xylazine. The left sciatic nerve was exposed by blunt dissection, and a 1 to 2 mm piece of this nerve was excised just below the level of the femoral head. A sham surgery was performed on the right hind limb in which the sciatic nerve was exposed but was not transected. Model 2002 Alzet pumps were implanted subcutaneously on the back. […] A pellet containing 15 mg of testosterone (Innovative Research of America, Sarasota, Fla.) administered as a continuous infusion (5 mg/wk), or a pellet containing placebo, was inserted into a subcutaneous pouch. […] Because testosterone is known to have anabolic actions (Ferrando et al., Am J Physiol Endocrinol Metab 282: E601-E607, 2002; Mauras et al., J Clin Endocrinol Metab 83: 1886-1892, 1998; Urban et al., Am J Physiol 269: E820-E826, 1995), reductions in levels of this hormone could affect muscle mass and confound interpretation of the results. Animals were euthanized 14 days later by inhalation of carbon dioxide. Following removal of blood from the left ventricle for determination of serum testosterone concentration by radioimmunoassay (MP Biomedicals, Costa Mesa, Calif.), soleus, extensor digitorum longus (EDL), gastrocnemius and plantaris muscles were excised and weighed, then were flash frozen on dry ice and stored at −80° C.
Total RNA was extracted from skeletal muscle (20 mg) by homogenization in guanidine thiocyanate using a Polytron followed by extraction using phenol-chloroform (Chomczynski and Sacchi, Anal Biochem 162: 156-159, 1987). Total RNA was further enriched using RNAeasy minicolumns (Qiagen, Valencia, Calif.) and treated with RNAse-free DNAse (Qiagen). Total RNA was then eluted and quantified by absorbance at 260 nm. One μg of total RNA was used to prepare a cDNA library by reverse transcription (iScirpt, Biorad, Hercules, Calif.). Libraries were diluted 1:25 with water prior to real time PCR. Real time PCR was conducted using an ABI 7500 real time PCR thermal cycler, ABI 2×PCR reagent, and ABI Taqman real time PCR probes for genes of interest. Levels of gene expression in the denervated muscle were expressed as fold induction relative to muscle from the sham-denervated leg of animals administered vehicle. […] Fold-induction was determined using the 2^−ΔΔCt method, using expression of 18S RNA as the normalization control. Primers and probes used for 18S RNA, MuRF1 and myostatin were obtained through the assays by Design service of Applied Biosystems and had the sequences are shown in Table 2; probes were 5′ labeled with FAM and 3′ modified with a non-fluorescent quencher. All other primer-probe combinations used were those contained in ABI Assay on Demand kits.

[2] = test system: GADD45; test: Acute denervation: GADD45 mRNA in EDL and soleus (qPCR); conditions: significant
Procedure: Male Wistar rats weighing 250 gm (Taconic Farms, Germantown, N.Y.) were provided food and water ad libitum and were housed in a temperature and humidity controlled environment providing a 12:12 hour day-night cycle. For surgical procedures, animals were anesthetized with ketamine/xylazine. The left sciatic nerve was exposed by blunt dissection, and a 1 to 2 mm piece of this nerve was excised just below the level of the femoral head. A sham surgery was performed on the right hind limb in which the sciatic nerve was exposed but was not transected. Model 2002 Alzet pumps were implanted subcutaneously on the back. […] A pellet containing 15 mg of testosterone (Innovative Research of America, Sarasota, Fla.) administered as a continuous infusion (5 mg/wk), or a pellet containing placebo, was inserted into a subcutaneous pouch. […]
(§2) Total RNA was extracted from skeletal muscle (20 mg) by homogenization in guanidine thiocyanate using a Polytron followed by extraction using phenol-chloroform (Chomczynski and Sacchi, Anal Biochem 162: 156-159, 1987). […] Total RNA was then eluted and quantified by absorbance at 260 nm. […] Levels of gene expression in the denervated muscle were expressed as fold induction relative to muscle from the sham-denervated leg of animals administered vehicle. […] Fold-induction was determined using the 2^−ΔΔCt method, using expression of 18S RNA as the normalization control. […]

[3] = test system: IGF-1 receptor; test: Chronic denervation: IGF receptor mRNA in gastrocnemius (qPCR); conditions: for IGF-receptor expression: denervated muscle
Procedure: (§3) Male Wistar rats weighing 200-250 gm (Taconic Farms, Germantown, N.Y.) were provided food and water ad libitum and were housed in a temperature and humidity controlled environment providing a 12:12 hour day-night cycle. For surgical procedures, animals were anesthetized with ketamine/xylazine. The left sciatic nerve was exposed by blunt dissection, and a 1 to 2 mm piece of this nerve was excised just below the level of the femoral head. A sham surgery was performed on the right hind limb in which the sciatic nerve was exposed but was not transected. Twenty eight days later, animals were anesthetized, and Alzet pumps were implanted subcutaneously on the back. […] Testosterone levels after replacement were approximately 15 nM, a high-normal range for rats of this age. Animals were sacrificed 3, 7 or 28 days after implantation of the miniosmotic pumps by inhalation of carbon dioxide. Gastrocnemius muscles were excised and weighed, then flash frozen on dry ice and stored at −80° C.
(§4) Total RNA was extracted from skeletal muscle (20 mg) by homogenization in guanidine thiocyanate using a Polytron followed by extraction of total RNA with phenol-chloroform as described by (Chomczynski and Sacchi, Anal Biochem 162: 156-159, 1987). Total RNA was further enriched using RNAeasy minicolumns (Qiagen, Valencia, Calif.). This procedure included digestion of contaminating DNA on the column with RNAse-free DNAse (Qiagen). Total RNA was eluted and quantified by absorbance at 260 nm. One μg of total RNA was used to prepare a cDNA library by reverse transcription (High Capacity cDNA Archive Kit, Applied Biosystems). Libraries were diluted 25-fold with water. Real time PCR was performed Taqman 2×PCR buffer (Applied Biosystems) using an Applied Biosystems 7500 thermocycler. Levels of gene expression in the denervated muscle were expressed as fold induction relative to muscle from the sham-denervated leg of animals administered vehicle. […] Fold-induction was determined using the 2^−ΔΔCt method, using expression of 18S RNA as the normalization control. […]

[4] = test system: MuRF1; test: Acute denervation: MuRF1 mRNA in EDL and soleus (qPCR); conditions: nandrolone 1.5 mg/kg/wk 14 days
Procedure: as §1, with “Following removal of blood from the left ventricle for determination of serum testosterone concentration by radioimmunoassay (MP Biomedicals, Costa Mesa, Calif.), soleus, extensor digitorum longus (EDL), gastrocnemius and plantaris muscles were excised and weighed, then were flash frozen on dry ice and stored at −80° C.” left out
as §2

[5] = test system: IGFBP-5; test: Chronic denervation: IGFBP-5 mRNA in gastrocnemius (qPCR)
Procedure: as §3, §4

C[C@]12CC[C@H]3[C@@H](CCC4=CC(=O)CC[C@@H]43)[C@@H]1CC[C@@H]2O [nandrolone]
myogenin expression ([1]; denervated EDL, not significant): tended to reduce
myogenin expression as % of that in denervated muscle from placebo animals ([1]; denervated soleus): 70%
reduction of myogenin expression ([1]; sham-denervated EDL, not significant): 50%
reduction of myogenin expression ([1]; sham-denervated EDL, trend, not significant): 27%
reduction of myogenin expression ([1]; sham-denervated soleus, did not reach significance): 50%
reduction of myogenin expression ([1]; sham-denervated soleus, trend, not significant): 48%
reduction in GADD45 expression ([2]; denervated EDL): 21%
decrease in GADD45 expression ([2]; denervated soleus): 40%
IGF-receptor expression ([3]; after 28 days (p<0.10)): trend toward increased expression
IGF-receptor expression ([3]; early time points): did not alter
IGF-1 receptor expression ([3]; sham-denervated muscle): not altered
MuRF1 expression ([4]; denervated EDL): significantly reduced
MuRF1 expression ([4]; denervated soleus): significantly decreased
MuRF1 expression ([4]; sham-denervated soleus or EDL): did not significantly affect
IGFBP-5 expression ([5]; denervated muscle, 56-days): tended to reduce
IGFBP-5 expression ([5]; denervated muscle, any time tested): did not significantly alter
IGFBP-5 expression ([5]; sham-denervated muscle): did not appreciably alter

From patent US7429482B2, “Screening tools for discovery of novel anabolic agents” (United States of America as represented by the Department …, priority 2005, dated 2008)
